According to the NIST ThermoML archive (doi:10.1021/je700339f):

Settings: Liquid

ClCCCCCCCl [1,6-dichlorohexane]
mass density [kg/m3]
Settings	288.15 K	298.15 K	308.15 K	318.15 K
100 kPa	1073.7	1063.8	1054.6	1045.1
500 kPa	1073.9	1064.2	1054.9	1045.3
1000 kPa	1074.3	1064.4	1055.2	1045.7
1500 kPa	–	1064.8	1055.5	1046.2
1600 kPa	1074.6	–	–	–
2000 kPa	1075	1065.2	1055.9	1046.6
2500 kPa	1075.3	1065.5	1056.3	1046.9
3100 kPa	1075.7	1065.9	1056.7	1047.4
3600 kPa	1076	1066.3	1057.1	1047.8
4100 kPa	1076.3	1066.7	1057.4	1048.1
4500 kPa	–	1066.9	–	–
4600 kPa	1076.6	–	1057.8	1048.4
5000 kPa	–	1067.3	–	–
5100 kPa	1076.9	–	1058.2	1048.9
5600 kPa	1077.3	1067.6	1058.5	1049.2
6100 kPa	1077.6	1068	1058.9	1049.7
6500 kPa	1077.9	–	–	–
6600 kPa	–	1068.4	1059.2	1050
7100 kPa	1078.3	1068.7	1059.6	1050.4
7600 kPa	1078.5	1069	1059.8	1050.7
8100 kPa	1078.9	1069.4	1060.2	1051.2
8500 kPa	–	–	–	1051.4
8600 kPa	1079.2	1069.7	1060.6	–
9100 kPa	1079.5	–	–	1051.8
9200 kPa	–	1070.1	1061	–
9600 kPa	1079.9	1070.4	1061.4	1052.2
10100 kPa	1080.2	1070.7	1061.7	1052.6
10600 kPa	1080.5	1071.1	1062.1	–
10700 kPa	–	–	–	1053.1
11000 kPa	–	1071.3	–	–
11100 kPa	1080.8	–	1062.4	1053.6
11600 kPa	1081.2	–	1062.7	1053.9
11700 kPa	–	1071.7	–	–
12100 kPa	1081.5	1071.9	1063.1	1054.1
12600 kPa	1081.8	1072.3	1063.5	1054.5
13100 kPa	1082.1	1072.6	1063.8	1054.8
13600 kPa	1082.4	1072.9	1064.1	1055.3
14100 kPa	–	–	1064.5	–
14200 kPa	1082.8	1073.3	–	1055.6
14700 kPa	1083	1073.6	–	1056
14800 kPa	–	–	1064.9	–
15100 kPa	–	–	1065.1	–
15200 kPa	1083.4	1074	–	1056.3
15600 kPa	–	–	–	1056.6
15700 kPa	1083.7	1074.3	1065.5	–
16200 kPa	–	–	1065.8	–
16300 kPa	1084	–	–	1057.1
16400 kPa	–	1074.8	–	–
16700 kPa	–	–	1066.2	–
16800 kPa	1084.3	1075.2	–	1057.3
17300 kPa	1084.6	1075.5	1066.6	1057.7
17800 kPa	1084.9	1075.8	1066.9	1058
18300 kPa	1085.3	1076.1	1067.2	1058.3
18700 kPa	–	1076.4	1067.4	–
18800 kPa	1085.5	–	–	–
18900 kPa	–	–	–	1058.8
19200 kPa	1085.7	1076.7	1067.8	1059
19700 kPa	1086	1076.9	1068	1059.3
20200 kPa	1086.5	1077.3	–	1059.6
20300 kPa	–	–	1068.5	–

ClCCCl [1,2-dichloroethane]
mass density [kg/m3]
Settings	288.15 K	298.15 K	308.15 K	318.15 K
100 kPa	1259.9	1245.5	1231	1216.4
500 kPa	1260.3	1246.1	1231.4	1216.7
1000 kPa	1260.8	1246.4	1232	1217.4
1500 kPa	1261.2	1246.9	1232.5	1218
2000 kPa	1261.6	1247.4	1233	1218.5
2500 kPa	1262.2	1247.8	1233.5	1219.1
3100 kPa	1262.7	1248.5	1234.2	1219.8
3600 kPa	1263.2	1248.9	1234.7	1220.3
4100 kPa	1263.6	1249.4	1235.2	1220.9
4600 kPa	1264	1249.9	1235.7	1221.4
5100 kPa	1264.5	1250.4	1236.2	1222
5600 kPa	1264.9	1250.9	1236.9	1222.6
6100 kPa	1265.4	1251.4	1237.3	1223.1
6600 kPa	1265.8	1251.9	1237.9	1223.6
7100 kPa	1266.2	1252.3	1238.4	1224.1
7600 kPa	1266.7	1252.9	1238.6	1224.7
8100 kPa	1267.2	1253.2	1239.3	1225.2
8600 kPa	1267.6	1253.8	1239.8	1225.8
9200 kPa	1268.2	1254.4	1240.4	1226.3
9600 kPa	1268.6	1254.9	1240.9	1226.9
10000 kPa	–	1255.1	–	–
10100 kPa	1269	–	1241.3	1227.5
10600 kPa	1269.4	1255.9	1241.8	1227.9
11100 kPa	1269.8	1256.4	1242.3	1228.4
11600 kPa	1270.3	1256.7	1242.8	1229
12100 kPa	1270.7	1257.3	1243.4	1229.5
12500 kPa	–	–	–	1230
12600 kPa	1271	1257.6	1243.8	–
13100 kPa	1271.5	1258	1244.2	1230.6
13600 kPa	1271.9	1258.5	1244.7	1231
14100 kPa	1272.4	–	–	–
14200 kPa	–	1259	1245.3	1231.6
14700 kPa	1272.9	1259.4	1245.8	1232.1
15200 kPa	1273.3	1260	1246.4	1232.7
15600 kPa	–	–	–	1233.1
15700 kPa	1273.7	1260.5	1246.8	–
16200 kPa	–	1260.8	1247.2	–
16300 kPa	1274.2	–	–	1233.8
16700 kPa	–	1261.4	1247.7	–
16800 kPa	1274.6	–	–	1234.2
17200 kPa	1275	–	1248.2	–
17300 kPa	–	1261.9	–	1234.8
17700 kPa	1275.4	–	–	–
17800 kPa	–	1262.4	1248.7	1235.2
18200 kPa	1275.8	–	–	1235.5
18300 kPa	–	1262.8	1249.2	–
18600 kPa	1276.2	–	–	–
18800 kPa	–	1263.3	1249.6	–
18900 kPa	–	–	–	1236.2
19000 kPa	1276.5	–	–	–
19200 kPa	–	1263.7	1250.1	1236.5
19400 kPa	1276.9	–	–	–
19700 kPa	–	1264.1	1250.6	1237.1
20000 kPa	1277.3	–	–	–
20200 kPa	–	1264.5	1251	1237.5
